# How the values were obtained:
# Type in all cases: in vivo
# corn [1] = assay: Test Example-3: phytotoxicity by a treatment before weeds are generated under upland field conditions; settings: 50 g a.i/ha; upland soil treatment before emergence; about 21 days after treatment; score 0-5
# From the text: (§1) Using the formulation prepared according to the methods described above, the herbicidal effect of the bicyclic pyrazolinone derivative of the invention according to the methods shown in Test Examples below was examined. The herbicidal effect with respect to the test weeds or the phytotoxicity with respect to the test crops was examined according to the following criteria, and evaluated in six stage scores of 0 to 5. A vat having an area of 81 cm^2 and a depth of 3.5 cm was filled with upland soil, then, seeds of Ipomoea purpurea (tall morning glory), Amaranthus viridis (green amaranthus), Abutilon theophrasti (velvetleaf), Chenopodium album (common lambsquarters), and corn were seeded thereto, and the seeds were covered with soil of about 0.5 cm. Next day, a wettable powder or an emulsifiable concentrate of the compound of the present invention prepared according to Formulation Example was diluted, and a spray treatment was uniformly performed on the covered oil so as to be a predetermined dosage. The herbicidal effect with respect to the test weeds and the phytotoxicity with respect to corn about 21 days after the treatment were evaluated according to the evaluation criteria in six stages of 0 to 5 described above.
# [2] = test system: Abutilon theophrasti (velvetleaf); assay: Test Example-3: herbicidal effect by a treatment before weeds are generated under upland field conditions; settings: 50 g a.i/ha; upland soil treatment before emergence; about 21 days after treatment; score 0-5
# From the text: as §1
# [3] = test system: Amaranthus viridis (green amaranthus); assay: as above; settings: 50 g a.i/ha; upland soil treatment before emergence; about 21 days after treatment; score 0-5
# From the text: as §1
# [4] = test system: Chenopodium album (common lambsquarters); assay: as above; settings: 50 g a.i/ha; upland soil treatment before emergence; about 21 days after treatment; score 0-5
# From the text: as §1
# [5] = test system: Ipomoea purpurea (tall morning glory); assay: as above; settings: 50 g a.i/ha; upland soil treatment before emergence; about 21 days after treatment; score 0-5
# From the text: as §1
# corn [6] = assay: Test Example-5: phytotoxicity by a foliage treatment after weeds are generated under upland field conditions; settings: 12.5 g a.i/ha, foliage treatment after emergence, about 14 days after treatment, score 0-5
# From the text: as §1, with “While watering was suitably performed on there, the seeds were grown for 14 days. A” for “Next day, a”, “foliage portion of the plant” for “covered oil”, “dosage in the amount of water of 4000 L per hectare.” for “dosage.”, “14” for “21”
# [7] = test system: Abutilon theophrasti (velvetleaf); assay: Test Example-4: herbicidal effect by a foliage treatment after weeds are generated under upland field conditions; settings: 500 g a.i/ha, foliage treatment after emergence, about 14 days after treatment, score 0-5
# How it was run: (§2)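 Sown seeds, under about 0.5 cm of soil cover in upland soil, grew for 14 days before compound application. A wettable powder or emulsifiable concentrate, diluted to a predetermined dosage, was sprayed over foliage in 4000 L/ha water, with scoring on a 0–5 scale after roughly 14 days.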
# [8] = test system: Amaranthus viridis (green amaranthus); assay: as above; settings: 500 g a.i/ha, foliage treatment after emergence, about 14 days after treatment, score 0-5
# How it was run: as §2
# [9] = test system: Chenopodium album (common lambsquarters); assay: as above; settings: 500 g a.i/ha, foliage treatment after emergence, about 14 days after treatment, score 0-5
# How it was run: as §2
# corn [10] = assay: Test Example-4: phytotoxicity by a foliage treatment after weeds are generated under upland field conditions; settings: 500 g a.i/ha, foliage treatment after emergence, about 14 days after treatment, score 0-5
# How it was run: as §2
# [11] = test system: Abutilon theophrasti (velvetleaf); assay: Test Example-5: herbicidal effect by a foliage treatment after weeds are generated under upland field conditions; settings: 12.5 g a.i/ha, foliage treatment after emergence, about 14 days after treatment, score 0-5
# From the text: as §1, with “While watering was suitably performed on there, the seeds were grown for 14 days. A” for “Next day, a”, “foliage portion of the plant” for “covered oil”, “dosage in the amount of water of 4000 L per hectare.” for “dosage.”, “14” for “21”
# [12] = test system: Amaranthus viridis (green amaranthus); assay: as above; settings: 12.5 g a.i/ha, foliage treatment after emergence, about 14 days after treatment, score 0-5
# From the text: as §1, with “While watering was suitably performed on there, the seeds were grown for 14 days. A” for “Next day, a”, “foliage portion of the plant” for “covered oil”, “dosage in the amount of water of 4000 L per hectare.” for “dosage.”, “14” for “21”
# [13] = test system: Chenopodium album (common lambsquarters); assay: as above; settings: 12.5 g a.i/ha, foliage treatment after emergence, about 14 days after treatment, score 0-5
# From the text: as §1, with “While watering was suitably performed on there, the seeds were grown for 14 days. A” for “Next day, a”, “foliage portion of the plant” for “covered oil”, “dosage in the amount of water of 4000 L per hectare.” for “dosage.”, “14” for “21”
# [14] = test system: Ipomoea purpurea (tall morning glory); assay: as above; settings: 12.5 g a.i/ha, foliage treatment after emergence, about 14 days after treatment, score 0-5
# From the text: as §1, with “While watering was suitably performed on there, the seeds were grown for 14 days. A” for “Next day, a”, “foliage portion of the plant” for “covered oil”, “dosage in the amount of water of 4000 L per hectare.” for “dosage.”, “14” for “21”
compound,measurement,setting,value
COC(=O)C=C(COc1cc(-c2c(Cl)n3n(c2=O)CCOCC3)c(F)cc1Cl)OC (mixture of isomers) [Example 2-3],Phytotoxicity Corn,corn [1],0 (Herbicidal effect/phytotoxicity was 0% to 10%)
same,Herbicidal effect Abutilon theophrast,[2],5 (Herbicidal effect/phytotoxicity was 90% or greater)
same,Herbicidal effect Amaranthus viridis,[3],5 (Herbicidal effect/phytotoxicity was 90% or greater)
same,Herbicidal effect Chenopodium album,[4],4 (Herbicidal effect/phytotoxicity was 70% to 90%)
same,Herbicidal effect Ipomoea purpurea,[5],2 (Herbicidal effect/phytotoxicity was 30% to 50%)
same,Phytotoxicity Corn,corn [6],0 (Herbicidal effect/phytotoxicity was 0% to 10%)
same,Herbicidal effect Abutilon theophrast,[7],5 (Herbicidal effect/phytotoxicity was 90% or greater)
same,Herbicidal effect Amaranthus viridis,[8],5 (Herbicidal effect/phytotoxicity was 90% or greater)
same,Herbicidal effect Chenopodium album,[9],5 (Herbicidal effect/phytotoxicity was 90% or greater)
same,Phytotoxicity Corn,corn [10],1 (Herbicidal effect/phytotoxicity was 10% to 30%)
same,Herbicidal effect Abutilon theophrasti,[11],5 (Herbicidal effect/phytotoxicity was 90% or greater)
same,Herbicidal effect Amaranthus viridis,[12],5 (Herbicidal effect/phytotoxicity was 90% or greater)
same,Herbicidal effect Chenopodium album,[13],5 (Herbicidal effect/phytotoxicity was 90% or greater)
same,Herbicidal effect Ipomoea purpurea,[14],5 (Herbicidal effect/phytotoxicity was 90% or greater)

# — patent US9580444B2, “Polycyclic pyrazolinone derivative and herbicide comprising same as effective component thereof” (priority 2013, dated 2017)
